Experiments:
Assay type in all cases: functional
Cavia porcellus [1] = species: Cavia porcellus; test: Agonistic effect on beta-FNA treated guinea pig ileum preparations (GPI)
Cavia porcellus [2] = species: Cavia porcellus; test: Agonistic effect on untreated guinea pig ileum preparations (GPI)
[3] = kappa antagonistic effect on beta-FNA and alpha-CNA treated GPI (IC50 ratio=IC50 after treatment/IC50 before treatment)
[4] = kappa antagonistic effect on beta-FNA treated GPI (IC50 ratio=IC50 after treatment/IC50 before treatment)

## Oc1ccc2c3c1O[C@H]1[C@@H](N(CCCl)CCCl)CCC4(O)C(C2)N(CC2CC2)CCC314 (stereo partly specified)
Cavia porcellus [1]
  IC50: 2.4 nM
Cavia porcellus [2]
  IC50: 5.5 nM

## CCOc1ccc2c(c1)C1(C)CCN(CC3CC3)C(C2=O)C1C (stereo unspecified) [ETHYLKETAZOCINE]
Cavia porcellus [1]; Cavia porcellus, Ileum
  IC50: 0.69 nM
Cavia porcellus [2]; Cavia porcellus, Ileum
  IC50: 0.72 nM
[3]
  Ratio: 10.1
[4]
  Ratio: 1.21
